{"source": "ChEMBL document CHEMBL1201862", "about": "“PubChem BioAssay data set” (2004)", "key": {"[1]": {"biological_target": "T1, Alkaline phosphatase, tissue-nonspecific isozyme (Homo sapiens, UniProt P05186)", "T1 sequence (P05186 whole entry)": "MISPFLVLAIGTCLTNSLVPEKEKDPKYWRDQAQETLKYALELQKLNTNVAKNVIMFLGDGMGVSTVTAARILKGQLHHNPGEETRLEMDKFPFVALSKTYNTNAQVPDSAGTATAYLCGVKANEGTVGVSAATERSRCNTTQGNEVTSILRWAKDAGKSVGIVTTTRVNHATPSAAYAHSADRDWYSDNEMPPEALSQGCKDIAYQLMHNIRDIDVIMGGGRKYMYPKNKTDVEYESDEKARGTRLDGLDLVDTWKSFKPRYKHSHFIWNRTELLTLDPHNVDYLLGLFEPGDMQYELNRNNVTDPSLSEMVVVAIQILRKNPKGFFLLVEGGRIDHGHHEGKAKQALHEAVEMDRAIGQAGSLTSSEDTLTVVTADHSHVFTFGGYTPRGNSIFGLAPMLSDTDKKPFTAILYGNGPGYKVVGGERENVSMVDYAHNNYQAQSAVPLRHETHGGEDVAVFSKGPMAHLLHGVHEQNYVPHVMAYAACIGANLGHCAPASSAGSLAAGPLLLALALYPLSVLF"}, "X-box-binding protein 1": {"biological_target": "X-box-binding protein 1 (Homo sapiens, UniProt P17861)", "sequence (P17861 whole entry)": "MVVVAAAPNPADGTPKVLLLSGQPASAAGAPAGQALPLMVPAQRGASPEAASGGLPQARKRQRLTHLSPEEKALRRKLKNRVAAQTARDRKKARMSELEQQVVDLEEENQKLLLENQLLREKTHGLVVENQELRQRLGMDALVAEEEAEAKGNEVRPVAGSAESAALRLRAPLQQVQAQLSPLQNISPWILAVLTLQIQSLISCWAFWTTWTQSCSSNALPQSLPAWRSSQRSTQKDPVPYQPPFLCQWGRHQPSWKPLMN", "type": "functional, Cricetulus griseus"}, "Cytochrome P450 2C19": {"biological_target": "Cytochrome P450 2C19 (Homo sapiens, UniProt P33261)", "sequence (P33261 whole entry)": "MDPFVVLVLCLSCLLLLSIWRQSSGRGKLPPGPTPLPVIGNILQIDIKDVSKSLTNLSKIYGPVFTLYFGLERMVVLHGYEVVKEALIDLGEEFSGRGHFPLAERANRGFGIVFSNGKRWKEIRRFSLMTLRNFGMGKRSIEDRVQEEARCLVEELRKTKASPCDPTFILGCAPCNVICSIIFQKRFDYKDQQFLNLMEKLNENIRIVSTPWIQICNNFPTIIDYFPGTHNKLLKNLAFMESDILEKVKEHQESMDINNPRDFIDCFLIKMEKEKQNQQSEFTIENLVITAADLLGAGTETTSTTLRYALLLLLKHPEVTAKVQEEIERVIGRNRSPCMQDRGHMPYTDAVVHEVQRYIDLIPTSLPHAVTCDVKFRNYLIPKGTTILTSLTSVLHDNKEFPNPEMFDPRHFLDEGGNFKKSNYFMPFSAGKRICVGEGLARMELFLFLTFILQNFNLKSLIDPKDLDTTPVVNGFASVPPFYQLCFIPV", "test": "Cytochrome panel assay with activity outcomes. Panel member name: p450-cyp2c19 Compounds with AC50 equal or less than 10 uM are considered active", "type": "functional", "conditions": "read-out: AC50"}, "[2]": {"biological_target": "T2, Aryl hydrocarbon receptor (Homo sapiens, UniProt P35869)", "T2 sequence (P35869 whole entry)": "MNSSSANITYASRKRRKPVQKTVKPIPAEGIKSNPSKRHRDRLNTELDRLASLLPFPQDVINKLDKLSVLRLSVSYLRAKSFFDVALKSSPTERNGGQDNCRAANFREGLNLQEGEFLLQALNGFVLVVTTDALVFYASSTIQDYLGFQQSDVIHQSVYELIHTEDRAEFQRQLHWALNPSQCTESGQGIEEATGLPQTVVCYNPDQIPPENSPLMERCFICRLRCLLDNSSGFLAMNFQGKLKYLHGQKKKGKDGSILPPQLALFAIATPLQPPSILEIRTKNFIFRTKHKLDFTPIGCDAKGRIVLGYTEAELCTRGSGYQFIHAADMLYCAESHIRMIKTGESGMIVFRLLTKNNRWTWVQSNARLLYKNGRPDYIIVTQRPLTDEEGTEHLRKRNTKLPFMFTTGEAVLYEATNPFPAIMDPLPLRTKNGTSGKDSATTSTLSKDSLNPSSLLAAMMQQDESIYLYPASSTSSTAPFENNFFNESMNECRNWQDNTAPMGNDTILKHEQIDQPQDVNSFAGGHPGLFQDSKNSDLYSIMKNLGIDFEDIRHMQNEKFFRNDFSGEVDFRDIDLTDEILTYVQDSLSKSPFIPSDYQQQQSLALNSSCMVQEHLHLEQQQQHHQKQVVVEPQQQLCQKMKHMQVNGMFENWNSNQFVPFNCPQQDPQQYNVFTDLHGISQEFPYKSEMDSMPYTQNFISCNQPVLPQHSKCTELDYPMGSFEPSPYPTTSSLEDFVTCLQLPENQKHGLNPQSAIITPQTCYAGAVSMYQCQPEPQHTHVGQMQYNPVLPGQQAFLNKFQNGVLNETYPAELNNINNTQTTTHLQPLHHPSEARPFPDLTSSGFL", "test": "Luminescence-based cell-based high throughput dose response assay for activators of the Aryl Hydrocarbon Receptor (AHR). [Related pubchem assays: 2796 (Primary screen (AHR activators in singlicate)), 2845 (Confirmation screen (AHR activators in triplicate)), 434939 (Counterscreen (PXR activators in triplicate)), 2804 (Summary (AHR activators))]", "type": "ADME"}, "Genome polyprotein": {"biological_target": "Genome polyprotein (dengue virus type 2, UniProt P29990)", "sequence (P29990 2492-3391 limits assumed)": "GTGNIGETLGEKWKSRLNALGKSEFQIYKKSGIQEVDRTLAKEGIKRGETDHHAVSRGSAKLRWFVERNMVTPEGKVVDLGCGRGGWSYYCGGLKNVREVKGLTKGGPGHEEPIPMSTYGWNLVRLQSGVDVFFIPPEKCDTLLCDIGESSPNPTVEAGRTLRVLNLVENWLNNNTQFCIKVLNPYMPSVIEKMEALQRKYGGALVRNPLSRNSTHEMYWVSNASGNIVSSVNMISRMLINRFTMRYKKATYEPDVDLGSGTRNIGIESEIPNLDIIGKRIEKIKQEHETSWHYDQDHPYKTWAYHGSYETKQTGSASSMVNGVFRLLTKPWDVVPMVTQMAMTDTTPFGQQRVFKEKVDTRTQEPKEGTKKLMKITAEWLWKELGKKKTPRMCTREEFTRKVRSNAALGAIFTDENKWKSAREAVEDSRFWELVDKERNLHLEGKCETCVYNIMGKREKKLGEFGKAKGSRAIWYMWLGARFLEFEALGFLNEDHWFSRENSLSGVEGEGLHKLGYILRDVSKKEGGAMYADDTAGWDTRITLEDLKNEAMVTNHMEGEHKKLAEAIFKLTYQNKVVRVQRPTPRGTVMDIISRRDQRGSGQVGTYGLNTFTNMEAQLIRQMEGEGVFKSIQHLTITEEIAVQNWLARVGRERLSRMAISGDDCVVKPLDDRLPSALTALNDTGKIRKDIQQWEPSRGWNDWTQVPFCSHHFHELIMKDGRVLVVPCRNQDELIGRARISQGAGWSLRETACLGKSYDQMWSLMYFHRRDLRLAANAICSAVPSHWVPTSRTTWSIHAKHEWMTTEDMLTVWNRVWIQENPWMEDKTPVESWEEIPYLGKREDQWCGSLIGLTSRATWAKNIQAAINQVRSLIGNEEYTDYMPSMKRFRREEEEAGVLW", "test": "Dengue-2 NS5 methyltransferase inhibitors, primary screen, biochemical, confirmation dose response (AID 588689)", "type": "functional"}, "[3]": {"test_system": "Streptococcus sp. 'group A'", "test": "growth inhibition of control SK(-) GAS strain, dose response, counter-screen for streptokinase expression inhibitor project, luminescence, kanamycin, BacTiterGlo, confirmation (AID 1900)", "type": "functional, organism-based"}, "Vero": {"test_system": "Vero", "test": "Vero cell cytotoxicity, cytotoxicity control for flavivirus capping enzyme inhibitors (AID 588742)", "type": "functional", "conditions": "Chlorocebus sabaeus"}, "Streptococcus": {"test_system": "Streptococcus", "test": "Group A Streptococcus viability loss, dose response, counter-screen for streptokinase expression inhibitor project, luminescence, BacTiterGlo (AID 1915);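 note: potency for reduction of bacterial viability or growth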", "type": "functional, organism-based"}, "[4]": {"test": "Luminescence Cell-Based Dose Confirmation HTS to Identify Inhibitors of Polyadenylation.", "type": "functional"}, "[5]": {"test": "A cytotoxicity screen of small molecule inhibitors of the PhoP region in Salmonella typhi identified in the primary screen. [Related pubchem assays: 1850, 1864, 1985 ]", "type": "functional"}}, "note": "Calls of active or inactive are those of the source.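 Throughout, for Absolute IC50 (XBP1): confirmatory dose-response counter-screen serving a CHOP assay.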", "data": [{"smiles": "O=C(COC(=O)C1CC(=O)N(Cc2ccccc2)C1)Nc1ccc(Cl)cc1F", "note": "(configuration not stated)", "values": [{"measurement": "EC50", "setting": "[1]", "value": "> 100 µM (not active)"}]}, {"smiles": "CCOC(=O)c1[nH]c2ccc(Cl)cc2c1-c1ccccc1", "values": [{"measurement": "Absolute IC50 (XBP1)", "setting": "X-box-binding protein 1", "value": 10, "unit": "µM"}, {"measurement": "AC50", "setting": "Cytochrome P450 2C19", "value": "4.47 µM (inconclusive)"}]}, {"smiles": "Cc1nc(Cl)sc1C(=O)Nc1ccc(C(F)(F)F)cc1", "values": [{"measurement": "EC50", "setting": "[2]", "value": "1.57 µM (active)"}]}, {"smiles": "Fc1cccc2sc(Nc3nnc(-c4ccccc4)o3)nc12", "values": [{"measurement": "IC50", "setting": "Genome polyprotein", "value": "50.2 µM (active)"}, {"measurement": "EC50", "setting": "[3]", "value": "2 µM (active)"}, {"measurement": "EC50", "setting": "[1]", "value": "44.2 µM (active)"}, {"measurement": "CC50", "setting": "Vero", "value": "27 µM (active)"}, {"measurement": "EC50", "setting": "Streptococcus", "value": "6.97 µM (active)"}]}, {"smiles": "CC(NC(=O)CCCCCCN1C(=O)c2ccccc2C1=O)c1ccc2c(c1)CCCC2", "note": "(configuration not stated)", "values": [{"measurement": "EC50", "setting": "[4]", "value": "> 120 µM (not active)"}]}, {"smiles": "Clc1ccc2[nH]c(N3CCCCC3)nc2c1", "values": [{"measurement": "EC50", "setting": "[5]", "value": "> 50 µM (active)"}]}, {"smiles": "Cc1ccc(C2CC(=O)NC(SCCC(C)C)=C2C#N)cc1", "note": "(configuration not stated)", "values": [{"measurement": "EC50", "setting": "[5]", "value": "> 50 µM (active)"}]}]}
